Results taken from patent publication US11890287B2, “Therapeutic compounds and compositions for treating social disorders and substance use disorders” (Kinoxis Therapeutics Pty Ltd, priority 2015, dated 2024).

Assays:
[1] = system: male Hooded Wistar rats; experiment: Social interaction test; type: in vivo, rat
Description: The primary phenotypic effect was a massive increase in a behaviour called “adjacent lying” where unfamiliar rats come together in passive social contact for prolonged periods. […] (n=6-8 pairs per condition, 20 minute test). Remarkably the effects of SOC-1 outlive its acute administration and a prolonged upregulation of social behaviour (measured as time spent in close proximity) in rats given only 3 doses of SOC-1, 2 weeks previously, was observed (FIG. 1, image (B)).

[2] = target: V2 (Homo sapiens, UniProt P30518); experiment: Orthosteric binding, AVP receptors
[3] = system: Sprague Dawley rats; experiment: Acute toxicity, single intravenous bolus dose 1-30 mg/kg, one week dose range finding study; type: in vivo; conditions: for Hunched posture or gait- mild (incidence) / Number of abnormalities detected: (incidence) / Palpebral closure- mild/moderate (incidence) / Piloerection- mild (incidence) / Reduced activity- mild (incidence): n 3
Description: The acute toxicity of the SOC-1 test item was assessed in Sprague Dawley rats following intravenous administration of a single bolus dose. A total of four groups of n=3 adult female rats were treated with 1, 3, 10 and 30 mg/kg doses of SOC-1. The rats were then observed for 7 days prior to termination on Study Day 8 without necropsy.
The design of this acute single dose toxicity study in rats was adapted from OECD Guideline for Testing of Chemicals No. 420 Acute Oral Toxicity—Fixed Dose Procedure’ 2001 (2) and the test facility Standard Operating Procedure SP_T002 ‘Dose Range Finding Study in Rodents’. The study procedures were conducted as outlined below and according to related test facility Standard Operating Procedures.
Briefly, on completion of the acclimation period the study was commenced with administration of the treatment on Study Day 1. […] Body weights were also collected daily. On Study Day 8 the surviving animals were culled without necropsy.
The test item treatments were administered as a bolus intravenous injection in a dose volume of 2 mL/kg on Study Day 1 with restraint on conscious animals (with the exception of Group 4 where the treatment was administered in a dose volume of 6 mL/kg on lightly anaesthetised animals following the administration of isofluorane anaesthetic).
Morbidity and mortality observations were recorded daily during the acclimation period and on Day 8, and twice daily from Day 1 through Day 7.
Clinical observations were conducted at least once during the acclimation period. Clinical observations were conducted at least once daily from Day 1 up to and including the day prior to termination. On the day of treatment the animals were monitored continuously for the first 30 min post-treatment with formal observations made at 30 minutes, 1 hour and 4 hours post-treatment.
The clinical observations included examination of animals for changes in skin and fur, eyes and mucous membranes, respiratory and circulatory function, gait and posture, behaviour, tremors or convulsions and any other abnormal findings.
The clinical observations also included daily examination of the tail for any injection site reaction (for example, erythema or oedema).
Body weight was recorded once during the acclimation period and daily from the time of treatment on Day 1 to Day 8. The mean body weight values for study days 1-8 are shown as group mean±standard deviation (SD) in FIG. 14.

[4] = system: BALB/C mice; experiment: Social preference test, BALB/C mouse model of autism spectrum disorders; type: in vivo; conditions: 5 mg/kg IP
Source text: BALB/C mice have autistic-like behaviours (including reduced interest in social stimuli) compared to standard C57BL/6 mice. In a social preference test, BALB/C mice show no preference for interacting with a social stimulus (a novel mouse) over an object stimulus (a novel object), whereas C57BL/6 mice show a robust preference.

Chain of V2 (P30518 whole entry): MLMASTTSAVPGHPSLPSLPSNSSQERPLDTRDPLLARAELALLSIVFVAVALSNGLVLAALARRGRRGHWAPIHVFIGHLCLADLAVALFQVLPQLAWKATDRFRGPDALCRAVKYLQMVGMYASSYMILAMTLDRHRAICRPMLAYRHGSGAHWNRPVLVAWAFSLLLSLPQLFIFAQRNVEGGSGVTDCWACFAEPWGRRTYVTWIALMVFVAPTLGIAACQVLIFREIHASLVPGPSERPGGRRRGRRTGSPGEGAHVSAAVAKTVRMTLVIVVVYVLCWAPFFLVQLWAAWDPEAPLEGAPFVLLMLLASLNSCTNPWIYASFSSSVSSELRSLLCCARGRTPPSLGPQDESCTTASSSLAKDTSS

In the case of Cl.Cn1ncc2c1Nc1ccccc1NC2 [SOC-1], the “adjacent lying in the social interaction test” value ([1]; 5 and 10 mg/kg IP, 20 minute test) is reported as “massive increase in adjacent lying”, the “pro-social effects compared with AVP, MDMA and WAY 267,464” value ([1]; most efficacious doses, adjacent lying) is reported as “most powerful pro-social effects by a considerable margin” and the “proximity towards a novel conspecific (time spent within 1 body length)” value ([1]; two weeks following treatment, 3 doses in total across 6 days) is reported as “increased proximity towards a novel conspecific relative to controls”. The “affinity for the orthosteric binding site of V2” value [2] was “Nor does SOC-1 show any affinity”, the “Hunched posture or gait- mild (incidence)” value ([3]; 1 mg/kg IV) was 0 and the “Number of abnormalities detected: (incidence)” value ([3]; 1 mg/kg IV) was 3. For the same compound, the “Palpebral closure- mild/moderate (incidence)” value ([3]; 1 mg/kg IV) was 0, the “Piloerection- mild (incidence)” value ([3]; 1 mg/kg IV) was 0 and the “Reduced activity- mild (incidence)” value ([3]; 1 mg/kg IV) was 0. The “Hunched posture or gait- mild (incidence)” value ([3]; 3 mg/kg IV) was 0, the “Number of abnormalities detected: (incidence)” value ([3]; 3 mg/kg IV) was 3 and the “Palpebral closure- mild/moderate (incidence)” value ([3]; 3 mg/kg IV) was 0. The “Piloerection- mild (incidence)” value ([3]; 3 mg/kg IV) was 0, the “Reduced activity- mild (incidence)” value ([3]; 3 mg/kg IV) was 0 and the “reaction at the time of dose administration” value ([3]; 10 mg/kg IV in 0.9% saline) was “exaggerated flinch reaction and vocalisation”. For the same compound, the “Hunched posture or gait- mild (incidence)” value ([3]; 10 mg/kg IV) was 3, the “Number of abnormalities detected: (incidence)” value ([3]; 10 mg/kg IV) was 0 and the “Palpebral closure- mild/moderate (incidence)” value ([3]; 10 mg/kg IV) was 0. For the same compound, the “Piloerection- mild (incidence)” value ([3]; 10 mg/kg IV) was 3, the “Reduced activity- mild (incidence)” value ([3]; 10 mg/kg IV) was 0 and the “Hunched posture or gait- mild (incidence)” value ([3]; 30 mg/kg IV) was 0. For the same compound, the “Number of abnormalities detected: (incidence)” value ([3]; 30 mg/kg IV) was 0, the “Palpebral closure- mild/moderate (incidence)” value ([3]; 30 mg/kg IV) was 1 and the “Piloerection- mild (incidence)” value ([3]; 30 mg/kg IV) was 3. The “Reduced activity- mild (incidence)” value ([3]; 30 mg/kg IV) was 2, the “effect on body weight” value ([3]; 1, 3, 10 and 30 mg/kg IV) was “no effects of SOC-1 test item treatment on body weight” and the injection site reactions ([3]; 1, 3, 10 and 30 mg/kg IV) was “no findings of injection site reactions”. The morbidity and mortality ([3]; 1, 3, 10 and 30 mg/kg IV) was “no unscheduled deaths or findings of morbidity”, the tolerability ([3]; 1, 3, 10 and 30 mg/kg IV) was “tolerated in this study at all dose levels” and the “clinical findings post-dose on Study Day 1” value ([3]; 10 and 30 mg/kg IV) was “piloerection, hunched posture and gait and palpebral closure”. For the same compound, the “time to resolution of clinical findings post-dose” value ([3]; 10 and 30 mg/kg IV) was 4 to 24 h, the “Bodyweight, Mean” value ([3]; Group 1 (1 mg/kg IV), day 1) was 208.233 g and the “Bodyweight, Mean” value ([3]; Group 1 (1 mg/kg IV), day 2) was 203.733 g. For the same compound, the “Bodyweight, Mean” value ([3]; Group 1 (1 mg/kg IV), day 3) was 204.933 g, the “Bodyweight, Mean” value ([3]; Group 1 (1 mg/kg IV), day 4) was 208.100 g and the “Bodyweight, Mean” value ([3]; Group 1 (1 mg/kg IV), day 5) was 210.467 g. For the same compound, the “Bodyweight, Mean” value ([3]; Group 1 (1 mg/kg IV), day 6) was 215.300 g, the “Bodyweight, Mean” value ([3]; Group 1 (1 mg/kg IV), day 7) was 209.833 g and the “Bodyweight, Mean” value ([3]; Group 1 (1 mg/kg IV), day 8) was 216.633 g. For the same compound, the “Bodyweight, Mean” value ([3]; Group 2 (3 mg/kg IV), day 1) was 196.867 g, the “Bodyweight, Mean” value ([3]; Group 2 (3 mg/kg IV), day 2) was 193.700 g and the “Bodyweight, Mean” value ([3]; Group 2 (3 mg/kg IV), day 3) was 198.733 g. For the same compound, the “Bodyweight, Mean” value ([3]; Group 2 (3 mg/kg IV), day 4) was 199.233 g, the “Bodyweight, Mean” value ([3]; Group 2 (3 mg/kg IV), day 5) was 201.200 g and the “Bodyweight, Mean” value ([3]; Group 2 (3 mg/kg IV), day 6) was 204.733 g. For the same compound, the “Bodyweight, Mean” value ([3]; Group 2 (3 mg/kg IV), day 7) was 201.967 g, the “Bodyweight, Mean” value ([3]; Group 2 (3 mg/kg IV), day 8) was 206.333 g and the “Bodyweight, Mean” value ([3]; Group 3 (10 mg/kg IV), day 1) was 205.933 g. For the same compound, the “Bodyweight, Mean” value ([3]; Group 3 (10 mg/kg IV), day 2) was 207.267 g, the “Bodyweight, Mean” value ([3]; Group 3 (10 mg/kg IV), day 3) was 214.533 g and the “Bodyweight, Mean” value ([3]; Group 3 (10 mg/kg IV), day 4) was 216.100 g. The “Bodyweight, Mean” value ([3]; Group 3 (10 mg/kg IV), day 5) was 211.733 g, the “Bodyweight, Mean” value ([3]; Group 3 (10 mg/kg IV), day 6) was 213.433 g and the “Bodyweight, Mean” value ([3]; Group 3 (10 mg/kg IV), day 7) was 219.000 g. For the same compound, the “Bodyweight, Mean” value ([3]; Group 3 (10 mg/kg IV), day 8) was 218.900 g, the “Bodyweight, Mean” value ([3]; Group 4 (30 mg/kg IV), day 1) was 206.833 g and the “Bodyweight, Mean” value ([3]; Group 4 (30 mg/kg IV), day 2) was 202.567 g. The “Bodyweight, Mean” value ([3]; Group 4 (30 mg/kg IV), day 3) was 210.967 g, the “Bodyweight, Mean” value ([3]; Group 4 (30 mg/kg IV), day 4) was 216.500 g and the “Bodyweight, Mean” value ([3]; Group 4 (30 mg/kg IV), day 5) was 209.667 g. The “Bodyweight, Mean” value ([3]; Group 4 (30 mg/kg IV), day 6) was 213.367 g, the “Bodyweight, Mean” value ([3]; Group 4 (30 mg/kg IV), day 7) was 222.300 g and the “Bodyweight, Mean” value ([3]; Group 4 (30 mg/kg IV), day 8) was 219.767 g. The acute tolerated dose ([3]; bolus intravenous injection, female rats) was “at least 30 mg/kg”, the “time spent investigating the object stimulus (a novel object)” value [4] was “significantly increased the amount of time the BALB/C mice spent investigating the object stimulus” and the “time spent investigating the social stimulus (a novel mouse)” value [4] was “significantly increased the amount of time BALB/C mice spent investigating the social stimulus”.
